Measurements published in patent publication US12582122B2, “Herbicidal compositions comprising clethodim” (BASF SE, priority 2024, dated 2026).

Tested on: Digitaria insularis (DIGIN)
Assay: Post-emergence application in field trials, herbicidal activity (damage 0-100% vs untreated control)
Type: in vivo
Conditions: solo, post-emergence field trial, 21 DAT, 0.5% MSO; for % herbicidal activity A-1: 50 g ai/ha; for % herbicidal activity B: 240 g ai/ha
Experimental: In the examples below, using the method of S. R. Colby (1967) “Calculating synergistic and antagonistic responses of herbicide combinations”, Weeds 15, p. 22ff., the value E, which is expected if the activity of the individual active compounds is only additive, was calculated:
[formula] • where • X=percent activity using active herbicide A at an application rate a; • Y=percent activity using active herbicide B (e.g. clethodim) at an application rate b; • E=expected activity (in %) by A+B at application rates a+b.
If the value found experimentally is higher than the value E calculated according to Colby, a synergistic effect is present.
On field test sites, natural weed infestation or seeded weeds were treated post-emergence of the weeds.
In the field trials, the weeds were treated as indicated below.
In the following experiments, the herbicidal activity for the individual herbicidal compositions (solo and mixture applications) was assessed at the indicated days after treatment (DAT). The assessments for the damage on undesired weeds caused by the composition was carried out using a scale from 0 to 100%, compared to the untreated control plants. Here, 0 means no damage and 100 means complete destruction of the plants.
Herbicide A-1 and clethodim were, together with addition of 0.5% MSO (methylated sed oil) as adjuvant, formulated in water as distribution medium (water volume 200 l/ha) and sprayed with commercial flat fan nozzles.

**Q.** What does the source list for CCOC(=O)COc1ccccc1Oc1nc(-n2c(=O)cc(C(F)(F)F)n(C)c2=O)c(F)cc1Cl [A-1, ethyl 2-[2-[[3-chloro-5-fluoro-6-[3-methyl-2,6-dioxo-4-(trifluoromethyl)pyrimidin-1-yl]-2-pyridyl]oxy]phenoxy]acetate]?
**A.** % herbicidal activity A-1 (DIGIN height 5-15 cm): 57%; % herbicidal activity A-1 (DIGIN height 60-80 cm): 62%

**Q.** Which “% herbicidal activity B” value (DIGIN height 5-15 cm) does the source give for CCSC(C)CC1CC(=O)C(/C(CC)=N/OC/C=C/Cl)=C(O)C1 (stereo not shown) [B, clethodim] here?
**A.** 68%

**Q.** What about the “% herbicidal activity B” value (DIGIN height 60-80 cm) of the same compound?
**A.** 57%
